The text below walks through data of US5849735A, “Tricyclic benzazepine vasopressin antagonists” (American Cyanamid Company, priority 1995, dated 1998).

Assay [1] concerns the target T1, vasopressin V2 receptor (rat kidney medullary) (Rattus norvegicus, UniProt Q00788).
T1 construct: Medullary tissues from rat kidneys are dissected out; from tissue; host or cells: rat kidney medulla membranes
Briefly: Binding Assay to Rat Kidney Medullary V2 Receptors. Conditions: for inhibition at 10 µM: rat kidney V2. As for the experimental part:
Binding Assay to Rat Kidney Medullary V2 Receptors
Medullary tissues from rat kidneys are dissected out, cut into small pieces and soaked in a […] sodium chloride solution containing 1.0 mM EDTA with many changes of the liquid phase, until the solution is clear of blood. […] The tissue is homogenized in a 0.25M sucrose solution containing 1.0 mM EDTA and 0.1 mM PMSF using a Potter-Elvehjem homogenizer with a teflon pestle. The homogenate is filtered through several layers (4 layers) of cheese cloth. The filtrate is rehomogenized using a dounce homogenizer, with a tight fitting pestle. The final homogenate is centrifuged at 1500×g for 15 min. The nuclear pellet is discarded and the supernatant fluid recentrifuged at 40,000×g for 30 min. The resulting pellet formed contains a dark inner part with the exterior, slightly pink. The pink outer part is suspended in a small amount of 50.0 mM Tris.HCl buffer, pH 7.4. The protein content is determined by the Lowry's method (Lowry et al., J. Biol. Chem., 1953). The membrane suspension is stored at -70° C., in 50.0 mM Tris.HCl, containing 0.2% inactivated BSA and 0.1 mM PMSF in aliquots of 1.0 ml containing 10.0 mg protein per ml of suspension until sue in subsequent binding experiments.
For binding experiments, the following is added in ml volume to wells of a 96 well format of a microtiter plate: 100.0 ml of 100.0 mM Tris.HCl buffer containing 0.2% heat inactivated BSA, 10.0 mM MgCL2 and a mixture of protease inhibitors: leupeptin, 1.0 mg %; aprotinin, 1.0 mg % 1,10-phenanthroline, 2.0 mg %; trypsin inhibitor, and 0.1 mM PMSF, 20.0 ml of [^3 H] Arginine^8, vasopressin (S.A. 75.0 Ci/mmole) at 0.8 nM and the reaction initiated by the addition of 80.0 ml of tissue membranes (200.0 mg tissue protein). The plates are left undisturbed on the bench top for 120 minutes to reach equilibrium. Non-specific binding is assessed in the presence of 1.0 mM of unlabeled ligand, added in 20 ml volume. For test compounds, these are solubilized in 50% dimethylsulfoxide (DMSO) and added in 20.0 ml volume to a final incubation volume of […]. Upon completion of binding, the content of each well is filtered off, using a Brandel® cell Harvester (Gaithersburg, Md.). The radioactivity trapped on the filter disk by the ligand-receptor complex is assessed by liquid scintillation counting in a Parkard LS Counter, with an efficiency of 65% for tritium.

Assay [2] addresses T2, vasopressin V1 receptor (rat liver plasma membranes) (Rattus norvegicus, UniProt P30560).
T2 construct: Rat liver plasma membranes expressing the vasopressin V1 receptor subtypes; from tissue; host or cells: rat liver plasma membranes
The assay is described as follows: Binding Assay to Rat Hepatic V1 Receptors. Here is the method: Binding Assay to Rat Hepatic V1 Receptors
Rat liver plasma membranes expressing the vasopressin V1 receptor subtypes are isolated by sucrose density gradient according to the method described by Lesko et al., (1973). These membranes are quickly suspended in 50.0 mM Tris.HCl buffer, pH 7.4, containing 0.2% bovine serum albumin (BSA) and 0.1 mM phenylmethylsulfonylfluoride (PMSF) and kept frozen at -70° C. until used in subsequent binding experiments. For binding experiments, the following is added to the wells of a ninety-six well format microtiter plate: […] of […] buffer containing 10.0 mM MgCl2, 0.2% heat inactivated BSA and a mixture of protease inhibitors: leupeptin, 1.0 mg %; aprotinin, 1.0 mg %; 1,10-phenanthroline,2.0 mg %; trypsin inhibitor, 10.0 mg % and 0.1 mM PMSF, 20.0 ml of [phenylalanyl-3,4,5, -^3 H] vasopressin (S.A. 45.1 Ci/mmole) […], and the reaction initiated by the addition of 80 ml of tissue membranes containing 20 mg of tissue protein. The plates are kept undisturbed on the bench top at room temperature for 120 min. to reach equilibrium. Non-specific samples are assayed in the presence of 0.1 mM of the unlabeled […] phenylalanylvasopressin, added in 20.0 ml volume.
For test compounds, these are solubilized in 50% dimethylsulfoxide (DMSO) and added in 20.0 ml volume to a final incubation volume of […]. Upon completion of binding, the content of each well is filtered off, using a Brandel® cell Harvester (Gaithersburg, Md.). The radioactivity trapped on the filter disk by the ligand-receptor complex is assessed by liquid scintillation counting in a Packard LS Counter, with an efficiency of 65% for tritium.

T1 sequence (Q00788 whole entry): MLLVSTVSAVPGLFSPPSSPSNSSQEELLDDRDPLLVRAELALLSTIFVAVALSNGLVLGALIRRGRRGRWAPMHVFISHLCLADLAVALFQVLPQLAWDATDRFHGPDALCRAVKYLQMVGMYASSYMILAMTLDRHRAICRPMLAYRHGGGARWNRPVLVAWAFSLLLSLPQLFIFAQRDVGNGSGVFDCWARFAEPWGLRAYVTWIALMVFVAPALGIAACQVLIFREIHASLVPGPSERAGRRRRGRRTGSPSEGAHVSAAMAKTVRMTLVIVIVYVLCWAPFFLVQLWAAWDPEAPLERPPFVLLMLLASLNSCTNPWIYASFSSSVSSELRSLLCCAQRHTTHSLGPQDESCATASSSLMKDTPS
T2 sequence (P30560 whole entry): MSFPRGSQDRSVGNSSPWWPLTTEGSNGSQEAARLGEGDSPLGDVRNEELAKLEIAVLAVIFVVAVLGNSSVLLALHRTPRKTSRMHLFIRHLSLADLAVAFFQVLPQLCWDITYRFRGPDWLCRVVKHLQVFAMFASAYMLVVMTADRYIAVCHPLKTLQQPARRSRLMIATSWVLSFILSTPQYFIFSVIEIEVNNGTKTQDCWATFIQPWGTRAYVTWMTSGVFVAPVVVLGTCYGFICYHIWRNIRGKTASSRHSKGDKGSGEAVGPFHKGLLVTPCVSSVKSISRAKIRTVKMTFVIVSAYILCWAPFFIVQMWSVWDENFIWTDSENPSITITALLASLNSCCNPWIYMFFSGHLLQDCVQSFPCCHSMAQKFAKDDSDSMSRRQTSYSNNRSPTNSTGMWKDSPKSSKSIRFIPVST

For `Cc1ccc(F)cc1C(=O)Nc1ccc(C(=O)N2Cc3ccccc3CCc3ccccc32)cn1` [Example 45], the inhibition (commonly the relative decrease from the control value, in per cent) at 10 µM in assay [1] is 62%; in assay [2] (2 h, rat hepatic V1), 34%.
As to `O=C(c1ccc(-c2ccccc2)cc1)N1Cc2ccccc2Oc2ccccc21` [Example 26, 10-([1,1'-Biphenyl]-4-ylcarbonyl)-10,11-dihydrodibenz[b,f][1,4]oxazepine], testing at 10 µM in assay [1] gave an inhibition of 29%. The compound further gave an inhibition at 1 µM in assay [2] (2 h, rat hepatic V1, at 1 μM) of 46%.
Consider `O=C(c1ccccc1)c1ccc(C(=O)N2Cc3ccccc3Oc3ccccc32)cc1` [Example 32, 10-(4-Benzoylbenzoyl)-10,11-dihydrodibenz[b,f][1,4]oxazepine], for which the inhibition at 10 µM turned out to be 33% in assay [1] and 53% in assay [2] (2 h, rat hepatic V1).
In the case of `Cc1ccc(F)cc1C(=O)Nc1ccc(C(=O)N2Cc3ccccc3Oc3ncccc32)cn1` [Example 4, N-[5-(Pyrido[2,3-b][1,4]benzoxazepin-5(6H)-ylcarbonyl)-2-pyridinyl]-5-fluoro-2-methylbenzamide], the inhibition at 10 µM in assay [1] was determined as 20%; in assay [2] (2 h, rat hepatic V1), 44%.
Regarding `Cc1ccc(F)cc1C(=O)Nc1ccc(C(=O)N2Cc3sccc3Cc3ccccc32)cn1` [Example 2, N-[5-[(9,10-Dihydro-4H-thieno[2,3-c][1]benzazepin-9-yl)carbonyl]-2-pyridinyl]-5-fluoro-2-methylbenzamide], the IC50 (usually the concentration that gives 50% inhibition) amounted to 29 nM in assay [1] (rat kidney medullary V2 receptors) and 59 nM in assay [2] (rat hepatic V1 receptors).
